Source: ChEMBL document CHEMBL5260810, “Inhibition of bromodomain-containing protein 9 for the prevention of epigenetically-defined drug resistance” (Bioorg Med Chem Lett, 2017)

Assays:
Type in all cases: functional, cell-based
[1] = Cytotoxicity against human COLO-704 cells measured after 8 days; details: COLO 704, 192 h
NB69 = experiment: Cytotoxicity against human NB69 cells measured after 8 days; details: NB69, 192 h
KMS-12-PE = experiment: Cytotoxicity against human KMS-12-PE cells measured after 8 days; details: 192 h
[2] = Cytotoxicity against human UM-RC-6 cells measured after 8 days; details: UM-RC-6, 192 h
EMT6 = experiment: Cytotoxicity against mouse EMT6 Luciferase cells measured after 8 days; details: EMT6, 192 h
[3] = Cytotoxicity against human COV318 cells measured after 8 days; details: COV318, 192 h
[4] = Cytotoxicity against human KR7251 cells measured after 8 days; details: KR7251, 192 h
ML-2 = experiment: Cytotoxicity against human ML-2 cells measured after 8 days; details: ML-2, 192 h
KU812 cell line = experiment: Cytotoxicity against human KU812 cell line measured after 8 days; details: KU812, 192 h
[5] = Cytotoxicity against human RKOE6 cells measured after 8 days; details: RKOE6, 192 h
[6] = Cytotoxicity against human NCE-G 44 cells measured after 8 days; details: NCE-G 44, 192 h
SISO = experiment: Cytotoxicity against human SISO cells measured after 8 days; details: 192 h
[7] = Cytotoxicity against mouse 66cl-4 cells measured after 8 days; details: 66cl-4, 192 h
[8] = Cytotoxicity against human KMS-26 cells measured after 8 days; details: KMS-26, 192 h
EFO-27 = experiment: Cytotoxicity against human EFO-27 cells measured after 8 days; details: EFO-27, 192 h
[9] = Cytotoxicity against mouse AB22 cells measured after 8 days; details: AB22, 192 h
[10] = Cytotoxicity against human KMRC-1 cells measured after 8 days; details: KMRC-1, 192 h
SF-539 = experiment: Cytotoxicity against human SF-539 cells measured after 8 days; details: SF-539, 192 h
IPC-298 = experiment: Cytotoxicity against human IPC-298 cells measured after 8 days; details: IPC-298, 192 h
WM 266-4 = experiment: Cytotoxicity against human WM266-4 cells measured after 8 days; details: WM 266-4, 192 h
OCI-Ly10 = experiment: Cytotoxicity against human OCI-Ly10 cells measured after 8 days; details: OCI-Ly10, 192 h
EFE-184 = experiment: Cytotoxicity against human EFE-184 cells measured after 8 days; details: EFE-184, 192 h
HCT-8 = experiment: Cytotoxicity against human HCT-8 cells measured after 8 days; details: HCT-8, 192 h
[11] = Cytotoxicity against human BM-1604 cells measured after 8 days; details: BM-1604, 192 h
HT-3 = experiment: Cytotoxicity against human HT-3 cells measured after 8 days; details: HT-3, 192 h
TOV112D = experiment: Cytotoxicity against human TOV112D cells measured after 8 days; details: 192 h
[12] = Cytotoxicity against human UKE-1 cells measured after 8 days; details: UKE1, 192 h
143B = experiment: Cytotoxicity against human 143B cells measured after 8 days; details: 192 h
[13] = Cytotoxicity against human COR-L26 cells measured after 8 days; details: COR-L26, 192 h
LS174T = experiment: Cytotoxicity against human LS174T cells measured after 8 days; details: 192 h
[14] = Cytotoxicity against human COV434 cells measured after 8 days; details: COV434, 192 h
KURAMOCHI = experiment: Cytotoxicity against human KURAMOCHI cells measured after 8 days; details: 192 h
8305C = experiment: Cytotoxicity against human 8305C cells measured after 8 days; details: 192 h
[15] = Cytotoxicity against human HCC1010 cells measured after 8 days; details: HCC1010, 192 h
DMS-273 = experiment: Cytotoxicity against human DMS-273 cells measured after 8 days; details: DMS-273, 192 h
KM12 = experiment: Cytotoxicity against human KM12 cells measured after 8 days; details: KM12, 192 h
AGS = experiment: Cytotoxicity against human AGS cells measured after 8 days; details: 192 h
[16] = Cytotoxicity against human GR-M cells measured after 8 days; details: 192 h
COLO 201 = experiment: Cytotoxicity against human COLO201 cells measured after 8 days; details: COLO 201, 192 h
[17] = Cytotoxicity against human Panc 04.03 cells measured after 8 days; details: Panc 04.03, 192 h
[18] = Cytotoxicity against human SC1 cells measured after 8 days; details: SC-1, 192 h
Huh-7 = experiment: Cytotoxicity against human Huh-7 cells measured after 8 days; details: Huh-7, 192 h
[19] = Cytotoxicity against human ASH-3 cells measured after 8 days; details: ASH-3, 192 h
SK-CO-1 = experiment: Cytotoxicity against human SK-CO-1 cells measured after 8 days; details: SK-CO-1, 192 h
[20] = Cytotoxicity against human JHH-1 cells measured after 8 days; details: JHH1, 192 h
[21] = Cytotoxicity against human HCC1263 cells measured after 8 days; details: HCC1263, 192 h
SET-2 = experiment: Cytotoxicity against human SET2 cells measured after 8 days; details: SET-2, 192 h
RVH-421 = experiment: Cytotoxicity against human RVH-421 cells measured after 8 days; details: RVH-421, 192 h
A-431 = experiment: Cytotoxicity against human A-431 cells measured after 8 days; details: A-431, 192 h
T98G = experiment: Cytotoxicity against human T98G cells measured after 8 days; details: 192 h
[22] = Cytotoxicity against human HCC597 cells measured after 8 days; details: HCC597, 192 h
IMR-32 = experiment: Cytotoxicity against human IMR-32 cells measured after 8 days; details: IMR-32, 192 h
CGTH-W-1 = experiment: Cytotoxicity against human CGTH-W-1 cells measured after 8 days; details: CGTH-W-1, 192 h
[23] = Cytotoxicity against mouse Clone M-3 cells measured after 8 days; details: Clone M-3, 192 h
[24] = Cytotoxicity against human COV413B cells measured after 8 days; details: 192 h
RPMI-2650 = experiment: Cytotoxicity against human RPMI-2650 cells measured after 8 days; details: RPMI-2650, 192 h
[25] = Cytotoxicity against human HCA1 cells measured after 8 days; details: HCA1, 192 h
BCPAP = experiment: Cytotoxicity against human BCPAP cells measured after 8 days; details: 192 h
[26] = Cytotoxicity against human KP-N-SI9s cells measured after 8 days; details: 192 h
[27] = Cytotoxicity against human NCE-G 28T cells measured after 8 days; details: 192 h
KYSE-150 cell line = experiment: Cytotoxicity against human KYSE-150 cell line measured after 8 days; details: KYSE-150, 192 h
ME-180 = experiment: Cytotoxicity against human ME-180 cells measured after 8 days; details: ME-180, 192 h
[28] = Cytotoxicity against human BICR 22 cells measured after 8 days; details: BICR 22, 192 h

SMILES: C/C=C/Cn1cc(-c2ccc(C(C)(C)O)cc2OC)c2cc[nH]c2c1=O
- IC50 [1]: 20 µM
- IC50 (NB69): 20 µM
- IC50 (KMS-12-PE): 20 µM
- IC50 [2]: 20 µM
- IC50 (EMT6): 20 µM
- IC50 [3]: 20 µM
- IC50 [4]: 20 µM
- IC50 (ML-2): 20 µM
- IC50 (KU812 cell line): 20 µM
- IC50 [5]: 20 µM
- IC50 [6]: 20 µM
- IC50 (SISO): 20 µM
- IC50 [7]: 20 µM
- IC50 [8]: 2.61 µM
- IC50 (EFO-27): 20 µM
- IC50 [9]: 20 µM
- IC50 [10]: 20 µM
- IC50 (SF-539): 20 µM
- IC50 (IPC-298): 20 µM
- IC50 (WM 266-4): 20 µM
- IC50 (OCI-Ly10): 20 µM
- IC50 (EFE-184): 20 µM
- IC50 (HCT-8): 20 µM
- IC50 [11]: 20 µM
- IC50 (HT-3): 20 µM
- IC50 (TOV112D): 20 µM
- IC50 [12]: 20 µM
- IC50 (143B): 17.2 µM
- IC50 [13]: 20 µM
- IC50 (LS174T): 20 µM
- IC50 [14]: 20 µM
- IC50 (KURAMOCHI): 20 µM
- IC50 (8305C): 20 µM
- IC50 [15]: 20 µM
- IC50 (DMS-273): 20 µM
- IC50 (KM12): 20 µM
- IC50 (AGS): 20 µM
- IC50 [16]: 20 µM
- IC50 (COLO 201): 20 µM
- IC50 [17]: 20 µM
- IC50 [18]: 17.8 µM
- IC50 (Huh-7): 20 µM
- IC50 [19]: 20 µM
- IC50 (SK-CO-1): 20 µM
- IC50 [20]: 20 µM
- IC50 [21]: 20 µM
- IC50 (SET-2): 20 µM
- IC50 (RVH-421): 20 µM
- IC50 (A-431): 20 µM
- IC50 (T98G): 20 µM
- IC50 [22]: 20 µM
- IC50 (IMR-32): 20 µM
- IC50 (CGTH-W-1): 20 µM
- IC50 [23]: 20 µM
- IC50 [24]: 20 µM
- IC50 (RPMI-2650): 20 µM
- IC50 [25]: 20 µM
- IC50 (BCPAP): 20 µM
- IC50 [26]: 20 µM
- IC50 [27]: 20 µM
- IC50 (KYSE-150 cell line): 20 µM
- IC50 (ME-180): 20 µM
- IC50 [28]: 20 µM

SMILES: C/C=C/Cn1cc(-c2ccc(C(=O)N3CCOCC3)cc2)c2cc[nH]c2c1=O
- IC50 [1]: 20 µM
- IC50 (NB69): 20 µM
- IC50 (KMS-12-PE): 20 µM
- IC50 [2]: 20 µM
- IC50 (EMT6): 20 µM
- IC50 [3]: 20 µM
- IC50 [4]: 20 µM
- IC50 (ML-2): 20 µM
- IC50 (KU812 cell line): 20 µM
- IC50 [5]: 20 µM
- IC50 [6]: 20 µM
- IC50 (SISO): 20 µM
- IC50 [7]: 20 µM
- IC50 [8]: 2.11 µM
- IC50 (EFO-27): 20 µM
- IC50 [9]: 20 µM
- IC50 [10]: 20 µM
- IC50 (SF-539): 20 µM
- IC50 (IPC-298): 18.6 µM
- IC50 (WM 266-4): 20 µM
- IC50 (OCI-Ly10): 20 µM
- IC50 (EFE-184): 20 µM
- IC50 (HCT-8): 20 µM
- IC50 [11]: 20 µM
- IC50 (HT-3): 20 µM
- IC50 (TOV112D): 20 µM
- IC50 [12]: 12.4 µM
- IC50 (143B): 20 µM
- IC50 [13]: 20 µM
- IC50 (LS174T): 20 µM
- IC50 [14]: 20 µM
- IC50 (KURAMOCHI): 20 µM
- IC50 (8305C): 20 µM
- IC50 [15]: 20 µM
- IC50 (DMS-273): 20 µM
- IC50 (KM12): 20 µM
- IC50 (AGS): 20 µM
- IC50 [16]: 20 µM
- IC50 (COLO 201): 20 µM
- IC50 [17]: 20 µM
- IC50 [18]: 20 µM
- IC50 (Huh-7): 20 µM
- IC50 [19]: 20 µM
- IC50 (SK-CO-1): 20 µM
- IC50 [20]: 20 µM
- IC50 [21]: 20 µM
- IC50 (SET-2): 11.1 µM
- IC50 (RVH-421): 20 µM
- IC50 (A-431): 20 µM
- IC50 (T98G): 20 µM
- IC50 [22]: 20 µM
- IC50 (IMR-32): 20 µM
- IC50 (CGTH-W-1): 20 µM
- IC50 [23]: 20 µM
- IC50 [24]: 20 µM
- IC50 (RPMI-2650): 20 µM
- IC50 [25]: 20 µM
- IC50 (BCPAP): 20 µM
- IC50 [26]: 20 µM
- IC50 [27]: 20 µM
- IC50 (KYSE-150 cell line): 20 µM
- IC50 (ME-180): 20 µM
- IC50 [28]: 20 µM
